Assay results as given in patent US20230019236A1, “PROTEIN TYROSINE PHOSPHATASE INHIBITORS AND METHODS OF USE THEREOF” (Calico Life Sciences LLC, priority 2019, published 2023).

Target: T1, His tagged PTPN2 (TC45) protein (Homo sapiens, UniProt P17706)
T1 construct: made in house
T1 sequence (P17706 with tags, fused parts or gaps isoform P17706-2): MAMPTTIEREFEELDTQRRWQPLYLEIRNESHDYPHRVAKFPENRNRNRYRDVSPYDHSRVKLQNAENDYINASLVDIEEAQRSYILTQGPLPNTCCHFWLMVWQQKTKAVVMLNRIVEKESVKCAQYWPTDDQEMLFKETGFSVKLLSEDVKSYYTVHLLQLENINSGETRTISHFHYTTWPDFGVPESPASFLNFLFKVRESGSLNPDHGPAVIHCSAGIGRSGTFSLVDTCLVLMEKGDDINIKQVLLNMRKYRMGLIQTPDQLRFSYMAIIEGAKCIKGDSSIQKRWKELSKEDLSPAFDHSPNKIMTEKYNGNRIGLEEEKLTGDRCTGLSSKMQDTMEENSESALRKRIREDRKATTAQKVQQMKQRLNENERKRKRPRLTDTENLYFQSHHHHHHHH
Assay: Mobility Shift Assay used to determine potency of PTPN2 inhibitors
Type: biochemical
Conditions: Table 2; read-out: PTPN2 MSA IC50
Experimental: Example 292: Mobility Shift Assay used to determine potency of PTPN2 inhibitors
Compound activity was determined using in house His tagged PTPN2 (TC45) protein (SEQ ID NO: 1) in an in vitro enzymatic reaction. The enzymatic assay used to determine activity was a mobility shift assay using a LabChip EZ Reader by Caliper Life Sciences. The enzymatic reaction was carried out in assay buffer (50 mM HEPES pH 7.5, 1 mM EGTA, 10 mM EDTA, 0.01% Tween® 20, and 2 mM DTT). The compounds were dispensed on a white 384 well ProxiPlate™ (PerkinElmer Catalog#6008289) plate using the Labcyte Echo at varying concentrations (12 point, 1:3 dilution). The enzyme (at 0.5 nM) was incubated with compound for 10 minutes at room temperature. Then the substrate (phosphorylated insulin receptor probe sequence: ((OG488)—{NH—CH2—CH2—O—CH2—CH2—O—CH2—CO)—T—R—D—I—(PY)—E—T—D—Y—Y—R—K—K—NH2) (SEQ ID NO: 2) was added at 2 μM to the plates and incubated for another 10 minutes at room temperature. Finally, a quench solution (water and 4-bromo-3-(2-oxo-2-propoxyethoxy)-5-(3-{[1-(phenylmethanesulfonyl)piperidin-4-yl]amino}phenyl)thiophene-2-carboxylic acid) was added to the plates, which were then run on the EZ Reader (excitation 488 nm, emission 530 nm) to measure % conversion (the amount of phosphorylated substrate which was de-phosphorylated by PTPN2). […] The % inhibition was then used to calculate the IC50 values.

Compound | IC50 [nM]
CC1(O)CN(CCOc2ccc3cc(O)c(N4CC(=O)NS4(=O)=O)c(F)c3c2)C1 [Compound 380, 5-{1-fluoro-3-hydroxy-7-[2-(3-hydroxy-3-methylazetidin-1-yl)ethoxy]naphthalen-2-yl}-1λ^6,2,5-thiadiazolidine-1,1,3-trione] | 1 to 10
O=C1CN(c2c(O)cc3ccc(OCCCC(F)F)cc3c2F)S(=O)(=O)N1 [Compound 372, 5-[7-(4,4-difluorobutoxy)-1-fluoro-3-hydroxynaphthalen-2-yl]-1λ^6,2,5-thiadiazolidine-1,1,3-trione] | < 1
C[C@](O)(CO)CCOc1cc2c(F)c(N3CC(=O)NS3(=O)=O)c(O)cc2cc1O [Compound 387, 5-{7-[(3R)-3,4-dihydroxy-3-methylbutoxy]-1-fluoro-3,6-dihydroxynaphthalen-2-yl}-1λ^6,2,5-thiadiazolidine-1,1,3-trione] | < 1
CN(CCC#N)CCOc1ccc2cc(O)c(N3CC(=O)NS3(=O)=O)c(F)c2c1 [Compound 389, 3-[(2-{[8-fluoro-6-hydroxy-7-(1,1,4-trioxo-1λ^6,2,5-thiadiazolidin-2-yl)naphthalen-2-yl]oxy}ethyl)(methyl)amino]propanenitrile] | 1 to 10
O=C1CN(c2c(O)cc3ccc(OCCN4CC(F)(F)C4)cc3c2F)S(=O)(=O)N1 [Compound 385, 5-{7-[2-(3,3-difluoroazetidin-1-yl)ethoxy]-1-fluoro-3-hydroxynaphthalen-2-yl}-1λ^6,2,5-thiadiazolidine-1,1,3-trione] | 1 to 10
NCC12CC(CCOc3ccc4cc(O)c(N5CC(=O)NS5(=O)=O)c(F)c4c3)(C1)C2 [Compound 376, 5-(7-{2-[3-(aminomethyl)bicyclo[11.1.1]pentan-1-yl]ethoxy}-1-fluoro-3-hydroxynaphthalen-2-yl)-1λ^6,2,5-thiadiazolidine-1,1,3-trione] | 1 to 10
NCC1(CCOc2ccc3cc(O)c(N4CC(=O)NS4(=O)=O)c(F)c3c2)CCC1 [Compound 379, 5-(7-{2-[1-(aminomethyl)cyclobutyl]ethoxy}-1-fluoro-3-hydroxynaphthalen-2-yl)-1λ^6,2,5-thiadiazolidine-1,1,3-trione] | 1 to 10
O=C1CN(c2c(O)cc3ccc(OCC45CC(CCO)(C4)C5)cc3c2F)S(=O)(=O)N1 [Compound 377, 5-(1-fluoro-3-hydroxy-7-{[3-(2-hydroxyethyl)bicyclo[1.1.1]pentan-1-yl]methoxy}naphthalen-2-yl)-1λ^6,2,5-thiadiazolidine-1,1,3-trione] | 1 to 10
CC1(CCOc2cc3c(F)c(N4CC(=O)NS4(=O)=O)c(O)cc3cc2O)CC1 [Compound 386, 5-{1-fluoro-3,6-dihydroxy-7-[2-(1-methylcyclopropyl)ethoxy]naphthalen-2-yl}-1λ^6,2,5-thiadiazolidine-1,1,3-trione] | < 1
O=C1CN(c2c(O)cc3ccc(OCCN4Cc5ccccc5C4)cc3c2F)S(=O)(=O)N1 [Compound 384, 5-{7-[2-(1,3-dihydro-2H-isoindol-2-yl)ethoxy]-1-fluoro-3-hydroxynaphthalen-2-yl}-1λ^6,2,5-thiadiazolidine-1,1,3-trione] | 1 to 10
CCN(C)CCOc1ccc2cc(O)c(N3CC(=O)NS3(=O)=O)c(F)c2c1 [Compound 388, 5-(7-{2-[ethyl(methyl)amino]ethoxy}-1-fluoro-3-hydroxynaphthalen-2-yl)-1λ^6,2,5-thiadiazolidine-1,1,3-trione] | 1 to 10
O=C1CN(c2c(O)cc3ccc(OCCC4(CO)CCC4)cc3c2F)S(=O)(=O)N1 [Compound 374, 5-(1-fluoro-3-hydroxy-7-{2-[1-(hydroxymethyl)cyclobutyl]ethoxy}naphthalen-2-yl)-1λ^6,2,5-thiadiazolidine-1,1,3-trione] | < 1
O=C1CN(c2c(O)cc3ccc(OCCCC(F)(F)CO)cc3c2F)S(=O)(=O)N1 [Compound 375, 5-{7-[(4,4-difluoro-5-hydroxypentyl)oxy]-1-fluoro-3-hydroxynaphthalen-2-yl}-1λ^6,2,5-thiadiazolidine-1,1,3-trione] | < 1
O=C1CN(c2c(O)cc3ccc(OCCC4COC4)cc3c2F)S(=O)(=O)N1 [Compound 373, 5-{1-fluoro-3-hydroxy-7-[2-(oxetan-3-yl)ethoxy]naphthalen-2-yl}-1λ^6,2,5-thiadiazolidine-1,1,3-trione] | 1 to 10
O=C1CN(c2c(O)cc3ccc(OCCN4CCC(F)(F)C4)cc3c2F)S(=O)(=O)N1 [Compound 383, 5-{7-[2-(3,3-difluoropyrrolidin-1-yl)ethoxy]-1-fluoro-3-hydroxynaphthalen-2-yl}-1λ^6,2,5-thiadiazolidine-1,1,3-trione] | 1 to 10
COCCN(C)CCOc1ccc2cc(O)c(N3CC(=O)NS3(=O)=O)c(F)c2c1 [Compound 382, 5-(1-fluoro-3-hydroxy-7-{2-[(2-methoxyethyl)(methyl)amino]ethoxy}naphthalen-2-yl)-1λ^6,2,5-thiadiazolidine-1,1,3-trione] | 10 to 100
O=C1CN(c2c(O)cc3ccc(C4=CCN(CCC5CC5)C4)cc3c2F)S(=O)(=O)N1 [Compound 244, 5-{7-[1-(2-cyclopropylethyl)-2,5-dihydro-1H-pyrrol-3-yl]-1-fluoro-3-hydroxynaphthalen-2-yl}-1λ^6,2,5-thiadiazolidine-1,1,3-trione] | 10 to 100
O=C1CN(c2c(O)cc3ccc(OCCC45CC(C4)C5)cc3c2F)S(=O)(=O)N1 [Compound 378, 5-{7-[2-(bicyclo[11.1.1]pentan-1-yl)ethoxy]-1-fluoro-3-hydroxynaphthalen-2-yl}-1λ^6,2,5-thiadiazolidine-1,1,3-trione] | < 1
O=C1CN(c2c(O)cc3ccc(OCCNCC(F)(F)F)cc3c2F)S(=O)(=O)N1 [Compound 390, 5-(1-fluoro-3-hydroxy-7-{2-[(2,2,2-trifluoroethyl)amino]ethoxy}naphthalen-2-yl)-1λ^6,2,5-thiadiazolidine-1,1,3-trione] | 1 to 10
O=C1CN(c2c(O)cc3ccc(OCCN4CCC[C@H]4C(F)(F)F)cc3c2F)S(=O)(=O)N1 [Compound 381, 5-(1-fluoro-3-hydroxy-7-{2-[(2S)-2-(trifluoromethyl)pyrrolidin-1-yl]ethoxy}naphthalen-2-yl)-1λ^6,2,5-thiadiazolidine-1,1,3-trione] | 1 to 10

Target: T2, His tagged full-length PTP1B protein (Homo sapiens, UniProt P18031)
T2 construct: made in house
T2 sequence (P18031 with tags, fused parts or gaps): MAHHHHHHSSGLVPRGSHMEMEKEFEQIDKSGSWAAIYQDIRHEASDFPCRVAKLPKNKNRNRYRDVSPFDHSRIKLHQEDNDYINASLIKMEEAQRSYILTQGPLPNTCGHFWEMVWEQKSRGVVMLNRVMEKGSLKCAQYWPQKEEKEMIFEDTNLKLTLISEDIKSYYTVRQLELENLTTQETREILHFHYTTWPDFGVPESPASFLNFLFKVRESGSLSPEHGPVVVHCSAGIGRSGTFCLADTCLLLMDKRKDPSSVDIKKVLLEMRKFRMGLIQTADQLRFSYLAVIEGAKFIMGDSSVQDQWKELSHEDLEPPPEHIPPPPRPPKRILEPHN
Assay: Mobility Shift Assay (MSA) used to determine potency of PTP1B inhibitors
Type: biochemical
Conditions: Table 2
Experimental: The enzymatic assay used to determine activity is a mobility shift assay using a LabChip EZ Reader by Caliper Life Sciences. The enzymatic reaction was carried out in assay buffer (50 mM HEPES pH 7.5, 1 mM EGTA, 10 mM EDTA, 0.01% Tween® 20, and 2 mM DTT). […] The enzyme (at 0.5 nM) was incubated with compound for 10 minutes at room temperature. […] The % inhibition was then used to calculate the IC50 values.

Compound | IC50 [nM]
Nc1ccc(CS(=O)(=O)N2CC=C(c3ccc4cc(O)c(N5CC(=O)NS5(=O)=O)c(F)c4c3)C2)cc1 [Compound 184, 5-(7-{1-[(4-aminophenyl)methanesulfonyl]-2,5-dihydro-1H-pyrrol-3-yl}-1-fluoro-3-hydroxynaphthalen-2-yl)-1λ^6,2,5-thiadiazolidine-1,1,3-trione] | 1 to 10
O=C1CN(c2c(O)cc3ccc(OCCOC4CCC4)cc3c2F)S(=O)(=O)N1 [Compound 214, 5-{7-[2-(cyclobutyloxy)ethoxy]-1-fluoro-3-hydroxynaphthalen-2-yl}-1λ^6,2,5-thiadiazolidine-1,1,3-trione] | 1 to 10
O=C1CN(c2c(O)cc3ccc(OCC4CC(F)(F)C4)cc3c2F)S(=O)(=O)N1 [Compound 235, 5-{7-[(3,3-difluorocyclobutyl)methoxy]-1-fluoro-3-hydroxynaphthalen-2-yl}-1λ^6,2,5-thiadiazolidine-1,1,3-trione] | < 1
O=C1CN(c2c(O)cc3ccc4occc4c3c2F)S(=O)(=O)N1 [Compound 104, 5-(9-fluoro-7-hydroxynaphtho[2,1-b]furan-8-yl)-1λ^6,2,5-thiadiazolidine-1,1,3-trione] | 10 to 100
O=C1CN(c2c(O)cc3ccc(-c4cccnc4)cc3c2F)S(=O)(=O)N1 [Compound 266, 5-[1-fluoro-3-hydroxy-7-(pyridin-3-yl)naphthalen-2-yl]-1λ^6,2,5-thiadiazolidine-1,1,3-trione] | > 100
